Our source for the EC50 values is US10059667B2, “Antidiabetic compounds” (MERCK SHARP & DOHME CORP., priority 2014, dated 2018).

Sequence of Human GPR40 (O14842 whole entry): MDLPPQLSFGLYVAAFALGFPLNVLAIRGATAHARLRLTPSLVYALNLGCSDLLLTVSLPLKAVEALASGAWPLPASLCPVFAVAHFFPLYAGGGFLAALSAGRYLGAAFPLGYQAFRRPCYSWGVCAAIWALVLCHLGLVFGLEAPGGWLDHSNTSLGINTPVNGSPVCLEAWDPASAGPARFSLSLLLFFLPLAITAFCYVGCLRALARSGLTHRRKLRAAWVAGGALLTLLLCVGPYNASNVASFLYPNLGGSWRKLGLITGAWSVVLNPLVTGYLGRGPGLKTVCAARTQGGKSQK

This assay concerns the target Human GPR40 (Homo sapiens (Human), UniProt O14842). Nature of the assay: Inositol Phosphate Turnover (IP1) Assay 1, HEK cells stably expressing human GPR40, 3H-inositol SPA. The format is cell-based. The note with it: HEK cells stably expressing human GPR40, 96-well. How it is done: Human and mouse GPR40 stable cell-lines were generated in CHO cells stably expressing NFAT BLA (Beta-lactamase). A human GPR40 stable cell-line was generated in HEK cells stably expressing the aequorin expressing reporter. The expression plasmids were transfected using lipofectamine (Life Technologies) following manufacturer's instructions. Stable cell-lines were generated following drug selection.
The assay was performed in 96-well format. HEK cells stably expressing human GPR40 were plated to be 60-80% confluent within 72 h. After 72 h, the plates were aspirated and the cells washed with inositol-free DMEM (ICN). The wash media was replaced with 150 μL of 3H-inositol labeling media (inositol-free media containing 0.4% human albumin or 0.4% mouse albumin, 1× pen/strep antibiotics, glutamine, 25 mM HEPES to which was added 3H-myo-inositol NEN #NET114A 1 mCi/mL, 25 Ci/mmol diluted 1:150 in loading media with a final specific radioactivity of 1 μCi/150 μL). Alternatively, the human and mouse albumin can be added after the overnight labeling step before the addition of LiCl.
The assay was typically run the next day after 18 h labeling. On the day of the assay, 5 μL of 300 mM LiCl was added to all wells and incubated at 37 degrees for 20 min. 0.75 μL of each compound was added and incubated with the cells for 60 min at 37 degrees. The media was then aspirated off and the assay terminated with the addition of 60 μL 10 mM formic acid. The cells were lysed for 60 min at room temperature. 15-30 μL of lysate was mixed with 70 μL/1 mg YSi SPA beads (Amersham) in clear bottom Isoplates. The plates were shaken for 2 h at room temperature. Beads were allowed to settle and the plates were counted in the Wallac Microbeta.
On to `C[C@H](C(=O)O)[C@H](c1cccc(OCC2CC(Oc3ccn[nH]3)C2)c1)C1CC1` (single isomer, unassigned) [Example 98], for which a half-maximal response (EC50) required 1480 nM.

For `C[C@H](C(=O)O)[C@H](c1cccc(OC[C@H]2C[C@@H]2c2cc(Cl)ccc2F)c1)C1CC1` [Example 152], a half-maximal effect (EC50) was put at 89 nM.

Consider `C[C@H](C(=O)O)[C@H](c1cccc(OC[C@H]2C[C@@H]2c2cc(C(F)(F)F)ccc2Cl)c1)C1CC1` [Example 143], for which a half-maximal response (EC50) required 175 nM.

As for `C[C@H](C(=O)O)[C@H](c1cccc(OCC2CCN(c3cc(C(F)(F)F)ccn3)CC2)c1)C1CC1` [Example 39], it took 218 nM to reach a half-maximal effect (EC50).

For the compound `C[C@H](C(=O)O)[C@H](c1cccc(OCC2CC(Oc3ccccc3F)C2)c1)C1CC1` (stereo partly drawn) [Example 94], the EC50 – broadly, the concentration at which the effect is half-maximal – was found to be 110 nM.

`COc1ccc(OC)c([C@H]2C[C@@H]2COc2cccc([C@H](C3CC3)[C@H](C)C(=O)O)c2)c1` [Example 139] showed an EC50 of 188 nM. This EC50 is about 1.7-fold higher than that of the compound before.

Compound `C[C@H](C(=O)O)[C@H](c1cccc(OCC2CC(Oc3ccccc3Cl)C2)c1)C1CC1` (single isomer, unassigned) [Example 134] returned an EC50 of 85 nM. This EC50 is about 2.2-fold lower than that of the compound before.

`COc1cccc([C@H]2C[C@@H]2COc2cccc([C@H](C3CC3)[C@H](C)C(=O)O)c2)c1F` [Example 140] showed an EC50 of 225 nM.

In turn, `COc1cc(F)c([C@H]2C[C@@H]2COc2cccc([C@H](C3CC3)[C@H](C)C(=O)O)c2)cc1F` [Example 153] showed an EC50 of 325 nM.

Consider `C[C@H](C(=O)O)[C@H](c1cccc(OC[C@H]2C[C@@H]2c2cc(C(F)(F)F)ccc2F)c1)C1CC1` [Example 157], for which the EC50 was found to be 130 nM.

On to `C[C@H](C(=O)O)[C@H](c1cccc(OCC2CC(Oc3cccc(O)c3)C2)c1)C1CC1` (single isomer, unassigned) [Example 123], for which the EC50 is 324 nM. This EC50 lies about 2.5-fold higher than the previous one.

Consider `COc1ncc([C@H]2C[C@@H]2COc2cccc([C@H](C3CC3)[C@H](C)C(=O)O)c2)cc1F` [Example 149], for which the EC50 was found to be 802 nM.

Compound `COc1cccc(C2=CCC(COc3cccc([C@H](C4CC4)[C@H](C)C(=O)O)c3)C2)c1` (stereo partly drawn) [Example 78, (2 S,3R)-3-cyclopropyl-3-(3-((3-(3-methoxyphenyl)cyclopent-3-en-1 yl)methoxy)phenyl)-2-methylpropanoic acid] had an EC50 of 75 nM.

Consider `COc1ccc([C@H]2C[C@@H]2COc2cccc([C@H](C3CC3)[C@H](C)C(=O)O)c2)c(F)c1` [Example 154], for which it took 544 nM to reach a half-maximal effect (EC50). This EC50 is about 7.3-fold higher than that of the compound before.

Compound `COc1ccc(C)cc1OC1CC(COc2cccc([C@H](C3CC3)[C@H](C)C(=O)O)c2)C1` (single isomer, unassigned) [Example 116] yielded an EC50 of 77 nM.

For `COc1ccc(F)c([C@H]2C[C@@H]2COc2cccc([C@H](C3CC3)[C@H](C)C(=O)O)c2)c1` [Example 74], the response was half-maximal at 56 nM (EC50).

Turning to `COc1ccc([C@H]2C[C@@H]2COc2cccc([C@H](C3CC3)[C@H](C)C(=O)O)c2)cc1` [Example 159], the EC50 came out at 472 nM. This EC50 lies about 8.4-fold higher than the previous one.

For the compound `C[C@H](C(=O)O)[C@H](c1cccc(OCC2CC(Oc3ccc(OC(F)F)nc3)C2)c1)C1CC1` (stereo partly drawn) [Example 95], the EC50 was 1390 nM.

`COc1cccc(OC2CC(COc3cccc([C@H](C4CC4)[C@H](C)C(=O)O)c3)C2)c1` (single isomer, unassigned) [Example 65] displayed an EC50 of 22 nM.

Take `C[C@H](C(=O)O)[C@H](c1cccc(OC[C@H]2C[C@@H]2c2cc(OC(F)(F)F)ccc2Cl)c1)C1CC1` [Example 146]: the EC50 came to 111 nM.

Regarding `COc1ncc(OC2CC(COc3cccc([C@H](C4CC4)[C@H](C)C(=O)O)c3)C2)cn1` (stereo partly drawn) [Example 96], the EC50 was 8230 nM.

Regarding `COc1ccc(OC2CC(COc3cccc([C@H](C4CC4)[C@H](C)C(=O)O)c3)C2)cc1` (stereo partly drawn) [Example 125], the EC50 was 565 nM.

`C[C@H](C(=O)O)[C@H](c1cccc(OCC2CC(Oc3ccc4c(c3)COC4=O)C2)c1)C1CC1` (single isomer, unassigned) [Example 108] yielded an EC50 of 1970 nM.

As for `C[C@H](C(=O)O)[C@H](c1cccc(OC[C@H]2C[C@@H]2c2cc(F)ccc2F)c1)C1CC1` [Example 151], the EC50 was 90 nM.
